These results are taken from the supplement of paper PMC11127212.

Data set [1] is described as follows: retention time on BEH HILIC column (20 min gradient, 0.4 mL/min); higher = later elution. The conditions noted are these: LC: HILIC. How it is done: (§1)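 Reference standards (20-100 uM) were separated by HILIC UPLC (BEH HILIC, 45 °C): acidic pH 3.0 ammonium formate/formic acid for ESI+ and basic pH 9.0 ammonium acetate/ammonia for ESI-. They were analysed on a Synapt G2-Si traveling-wave IMS-QTOF with nitrogen drift gas (WH 30 V; WV 800 m/s in ESI+ and 1000 m/s in ESI-).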

The nature of data set [2]: collision cross section (TWIMS, N2) of ion [M-H]-; higher = larger gas-phase ion cross section. The conditions noted are these: ionization: ESI negative; LC: HILIC, pH 9.0 ammonium acetate. How it is done:
as §1

The nature of data set [3]: collision cross section (TWIMS, N2) of ion [M+H-H2O]+; higher = larger gas-phase ion cross section. The conditions noted are these: ionization: ESI positive; LC: HILIC, pH 3.0 ammonium formate. How it is done:
(§2)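 Reference standards (20-100 uM) were separated by HILIC UPLC (BEH HILIC, 45 °C): acidic pH 3.0 ammonium formate/formic acid for ESI+ and basic pH 9.0 ammonium acetate/ammonia for ESI-. They were analysed on a Synapt G2-Si traveling-wave IMS-QTOF with nitrogen drift gas (WH 30 V; WV 800 m/s in ESI+ and 1000 m/s in ESI-). CCS (TWCCSN2, Å2) was calibrated with Major Mix IMS/TOF and LockCCS leucine enkephalin; inter-day RSD was <1%.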

Data set [4] in a line: collision cross section (TWIMS, N2) of ion [M+H]+; higher = larger gas-phase ion cross section. The note with it: ionization: ESI positive; LC: HILIC, pH 3.0 ammonium formate. The procedure:
as §1

A short description of data set [5]: collision cross section (TWIMS, N2) of ion [M+Na]+; higher = larger gas-phase ion cross section. The note with it: ionization: ESI positive; LC: HILIC, pH 3.0 ammonium formate. The procedure: as §2
[6] abbreviates: ionization: ESI negative, pH 9.0 ammonium acetate.
[7] abbreviates: ionization: ESI positive, pH 3.0 ammonium formate.

For the molecule `O=C(O)[C@H]1O[C@H](O)[C@H](O)[C@@H](O)[C@@H]1O` [Glucuronic acid], the “retention time on BEH HILIC column” value turned out to be 8.46 min in data set [1] (setting [6]) and 0.72 min in data set [1] (setting [7]). The collision cross section came out at 129.91 Å² in data set [2] and 134.39 Å² in data set [3].
`CSCC[C@H](N)C(=O)O` [L-methionine]: the “retention time on BEH HILIC column” value was determined as 6.8 min in data set [1] (setting [6]) and 6.59 min in data set [1] (setting [7]). Further, the collision cross section is 132.57 Å² in data set [2], 131.48 Å² in data set [4] and 135.16 Å² in data set [5].
With `O=C(O)c1cc(O)ccc1O` [Gentisic acid], the results for the “retention time on BEH HILIC column” value in data set [1] (setting [6]) and in data set [1] (setting [7]) were 1.41 min and 1.38 min, respectively. Also, the collision cross section came to 126.41 Å² in data set [2] and 126.57 Å² in data set [3].
Regarding `Nc1ncnc2nc[nH]c12` [Adenine], the “retention time on BEH HILIC column” value in data set [1] (setting [6]) amounted to 2.71 min; in data set [1] (setting [7]), 2.59 min. Further, the collision cross section in data set [2] stood at 126.29 Å²; in data set [4] it was 125.13 Å²; in data set [5], 134.02 Å².
In the case of `O=C(O)CNC(=O)c1ccccc1` [Hippuric acid], the “retention time on BEH HILIC column” value in data set [1] (setting [6]) came out at 2.21 min; in data set [1] (setting [7]), 2.16 min. In addition, the collision cross section in data set [2] turned out to be 139.07 Å²; in data set [4] it was 138.49 Å²; in data set [5], 146.37 Å².
For `O=C(O)[C@@H]1CCCN1` [L-proline], the “retention time on BEH HILIC column” value amounted to 7.23 min in data set [1] (setting [6]) and 7.22 min in data set [1] (setting [7]). The collision cross section in data set [2] was found to be 116.46 Å²; in data set [4], 123.7 Å²; in data set [5], 130.65 Å².
As for `Nc1nc(=O)c2nc(CNc3ccc(C(=O)N[C@@H](CCC(=O)O)C(=O)O)cc3)cnc2[nH]1` [Folic acid], the figures for the “retention time on BEH HILIC column” value in data set [1] (setting [6]) and in data set [1] (setting [7]) were 11.4 min and 6.7 min, respectively. Besides, the figures for the collision cross section in data set [2], in data set [4] and in data set [5] were 187.54 Å², 196.77 Å² and 201.44 Å², respectively.
As to `CN1CC(=O)NC1=N` [Creatinine], the entries for the “retention time on BEH HILIC column” value in data set [1] (setting [6]) and in data set [1] (setting [7]) were 1.98 min and 2.79 min, respectively. The collision cross section in data set [2] is on record as 120.56 Å²; in data set [4], 120.17 Å²; in data set [5], 129.07 Å².
Regarding `OC[C@H]1O[C@@H](n2cnc3c(O)ncnc32)[C@H](O)[C@@H]1O` [Inosine], the “retention time on BEH HILIC column” value in data set [1] (setting [6]) is 3.4 min; in data set [1] (setting [7]) it was 2.31 min. Also, the values for the collision cross section in data set [2], in data set [4] and in data set [5] were 159.47 Å², 155.86 Å² and 166.42 Å², respectively.
In the case of `C[N+](C)(C)CC(=O)O` [Betaine], the “retention time on BEH HILIC column” value in data set [1] (setting [7]) is 7.16 min. In addition, the results for the collision cross section in data set [4] and in data set [5] were 125.33 Å² and 132.22 Å², respectively.
Take `O=C(O)c1cccnc1` [Nicotinic acid]: the “retention time on BEH HILIC column” value in data set [1] (setting [6]) and in data set [1] (setting [7]) was 2.74 min throughout. Also, the collision cross section is given as 121.16 Å² in data set [2], 122.92 Å² in data set [4] and 128.31 Å² in data set [5].
With `O=C(O)/C=C\C(=O)O` [Maleic acid], the “retention time on BEH HILIC column” value in data set [1] (setting [7]) was found to be 0.82 min. Further, in data set [3], the collision cross section was found to be 114.1 Å².
For `NCCC(=O)N[C@@H](Cc1cnc[nH]1)C(=O)O` [Carnosine], the “retention time on BEH HILIC column” value in data set [1] (setting [6]) was determined as 11.7 min; in data set [1] (setting [7]) it was 11.8 min. Besides, the collision cross section in data set [2] was determined as 154.88 Å²; in data set [4] it was 151.65 Å²; in data set [5], 152.28 Å².
On the same counts, the results for `Nc1nc2c(ncn2[C@@H]2O[C@@H]3COP(=O)(O)O[C@H]3[C@H]2O)c(=O)[nH]1` [cGMP] are 6.9 min, 6.92 min, 172.34 Å², 171.22 Å² and 178.55 Å².
Consider `O=P(O)(O)OC[C@H]1OC(O)[C@H](O)[C@@H](O)[C@@H]1O` (stereo partly drawn) [Glucose 6-phosphate], for which the “retention time on BEH HILIC column” value was 12.1 min in data set [1] (setting [6]) and 9.32 min in data set [1] (setting [7]). The collision cross section in data set [2] worked out at 148.86 Å²; in data set [5] it was 154.07 Å².
As to `N[C@@H](Cc1ccc(O)cc1)C(=O)O` [L-tyrosine], the entries for the “retention time on BEH HILIC column” value in data set [1] (setting [6]) and in data set [1] (setting [7]) were 6.79 min and 6.67 min, respectively. The collision cross section in data set [2] stood at 141.65 Å²; in data set [4], 141.09 Å²; in data set [5], 143.2 Å².
`CC(=O)Oc1ccc(O)cc1` [4-hydroxyphenyl acetate]: the “retention time on BEH HILIC column” value turned out to be 0.67 min in data set [1] (setting [6]) and 0.88 min in data set [1] (setting [7]). For the same molecule, the results for the collision cross section in data set [2] and in data set [5] were 129.47 Å² and 138.25 Å², respectively.
For `CCCCCCC(=O)O` [Heptanoic acid], the “retention time on BEH HILIC column” value is 0.9 min in data set [1] (setting [6]) and 0.77 min in data set [1] (setting [7]). The collision cross section in data set [2] worked out at 135.55 Å²; in data set [5] it was 134.35 Å².
On the same counts, the results for `CCCCCCCCCCCCCCCC(=O)O` [Palmitic acid] are 0.77 min, 0.72 min, 170.14 Å² and 179.96 Å².
In the case of `O=C(O)CCCCCCCC(=O)O` [Azelaic acid], the “retention time on BEH HILIC column” value is 0.8 min in data set [1] (setting [6]) and 1 min in data set [1] (setting [7]). In addition, the collision cross section in data set [2] is recorded as 139.96 Å²; in data set [5], 145.99 Å².
As for `OC[C@@H](O)[C@@H](O[C@H]1O[C@H](CO)[C@@H](O)[C@H](O)[C@H]1O)[C@H](O)[C@@H](O)CO` [Maltitol], the “retention time on BEH HILIC column” value worked out at 6.83 min in data set [1] (setting [6]) and 6.7 min in data set [1] (setting [7]). For the same molecule, the collision cross section in data set [2] came to 171.26 Å²; in data set [5], 174.13 Å².
For the molecule `O=C(O)c1ccc(CO)o1` [Sumiki's acid], the results for the “retention time on BEH HILIC column” value in data set [1] (setting [6]) and in data set [1] (setting [7]) were 3.07 min and 3.12 min, respectively. Besides, the collision cross section was 128.72 Å² in data set [2] and 129.97 Å² in data set [5].
`COc1cc(/C=C/C(=O)O)ccc1O` [trans-ferulic acid]: the figures for the “retention time on BEH HILIC column” value in data set [1] (setting [6]) and in data set [1] (setting [7]) were 0.9 min and 0.93 min, respectively. The results for the collision cross section in data set [2] and in data set [5] were 143.64 Å² and 161.96 Å², respectively.
As for `O=C(O)CCCC(=O)C(=O)O` [Oxoadipic acid], the “retention time on BEH HILIC column” value in data set [1] (setting [6]) amounted to 5.03 min; in data set [1] (setting [7]), 4.84 min. Also, the collision cross section was 128.96 Å² in data set [2] and 136.98 Å² in data set [5].
Take `OC[C@H]1O[C@H](O[C@H]2[C@H](O)[C@H](O)[C@@H](O)O[C@@H]2CO)[C@H](O)[C@@H](O)[C@@H]1O` [D-maltose]: the “retention time on BEH HILIC column” value in data set [1] (setting [6]) turned out to be 7.95 min; in data set [1] (setting [7]) it was 6.68 min. In addition, the figures for the collision cross section in data set [2] and in data set [5] were 171.3 Å² and 175.45 Å², respectively.
